Measured values published in US20160312240A1, “MODIFIED PYR/PYL RECEPTORS ACTIVATED BY ORTHOGONAL LIGANDS” (The Regents of the University of California, priority 2010, published 2016).

Experiments:
[1] = tested on: PYR/PYL-PP2C protein-protein interactions; test: Yeast competition screen: reduction of ABA-promoted PYR/PYL-PP2C interaction; format: cell-based; settings: 100 nM ABA and 100 μM test chemical (1000-fold excess), yeast strains
Description: To isolate PYR1 orthogonal receptors, a two-step process was used. First, a large collection of compounds was screened to identify compounds that weakly interact with receptors, defined as such by their ability to displace receptor-bound ABA in competition experiments. Once weak binders were identified, those with the most desirable properties from an end-use perspective were used as targets for iterative mutagenesis and selection schemes. Pre-selection of weak-binding ligands improves the frequency of isolating new receptor proteins, because fewer alterations of the ligand binding site are required to achieve molecular recognition. However, pre-selection is not a prerequisite for success.
Pre-selection of ligands. 74 structurally diverse agrochemicals were obtained, selected from a larger set of approximately 1500 commercially available agrochemicals. These 74 compounds were tested for their ability to reduce ABA-promoted PYR/PYL-PP2C protein-protein interactions in suitable yeast strains when added at 1000-fold excess relative to ABA (i.e. 100 nM ABA and 100 μM test chemical).

PYR1 = PYR1 (Arabidopsis thaliana, UniProt O49686); settings: cited from earlier work
Sequence of PYR1 (O49686 whole entry): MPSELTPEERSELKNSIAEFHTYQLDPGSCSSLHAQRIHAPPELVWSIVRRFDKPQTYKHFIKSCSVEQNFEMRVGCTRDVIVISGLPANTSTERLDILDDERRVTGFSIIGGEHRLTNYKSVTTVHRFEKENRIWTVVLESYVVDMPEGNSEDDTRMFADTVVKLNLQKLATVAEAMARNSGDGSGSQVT

PYL1 = PYL1 (Arabidopsis thaliana, UniProt Q8VZS8); settings: cited from earlier work
Sequence of PYL1 (Q8VZS8 whole entry): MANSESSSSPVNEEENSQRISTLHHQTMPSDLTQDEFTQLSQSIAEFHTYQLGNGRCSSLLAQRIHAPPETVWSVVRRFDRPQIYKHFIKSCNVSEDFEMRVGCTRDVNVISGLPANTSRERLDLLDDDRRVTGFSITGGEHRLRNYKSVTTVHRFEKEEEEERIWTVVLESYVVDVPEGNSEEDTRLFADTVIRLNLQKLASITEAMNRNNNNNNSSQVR

PYL2 = PYL2 (Arabidopsis thaliana, UniProt O80992); settings: cited from earlier work
Sequence of PYL2 (O80992 whole entry): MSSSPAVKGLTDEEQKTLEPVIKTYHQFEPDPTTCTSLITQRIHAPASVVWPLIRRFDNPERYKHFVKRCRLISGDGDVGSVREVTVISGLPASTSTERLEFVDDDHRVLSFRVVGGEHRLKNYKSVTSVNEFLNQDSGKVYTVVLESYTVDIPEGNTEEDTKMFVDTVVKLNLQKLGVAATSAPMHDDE

PYR1 mutant 74A-1 = target: T1, PYR1 mutant 74A-1 (Arabidopsis thaliana, UniProt O49686, H60R/K59R/N151D); test: Yeast two-hybrid assay confirming bromoxynil responsiveness; format: cell-based; settings: 10, 25, and 50 μM (applied 5, 10, 25, 50 μM)
T1 construct: expressed in transfected cells
T1 sequence (Q9CAJ0 23-511): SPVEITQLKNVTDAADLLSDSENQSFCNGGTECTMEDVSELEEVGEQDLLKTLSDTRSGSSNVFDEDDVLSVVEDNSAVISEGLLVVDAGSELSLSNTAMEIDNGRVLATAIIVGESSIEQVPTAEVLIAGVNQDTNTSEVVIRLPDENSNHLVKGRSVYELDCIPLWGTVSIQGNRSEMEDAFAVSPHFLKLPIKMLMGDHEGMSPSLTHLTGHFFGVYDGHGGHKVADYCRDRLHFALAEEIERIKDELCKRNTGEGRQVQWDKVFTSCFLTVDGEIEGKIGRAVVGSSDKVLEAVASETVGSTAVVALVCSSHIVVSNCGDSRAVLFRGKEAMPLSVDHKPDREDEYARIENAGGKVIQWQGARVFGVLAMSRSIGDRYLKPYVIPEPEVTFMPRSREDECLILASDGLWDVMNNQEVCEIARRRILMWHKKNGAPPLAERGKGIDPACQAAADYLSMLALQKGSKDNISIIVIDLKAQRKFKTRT
T1 sequence (O49686 whole entry K59R/H60R/N151D): as the sequence (O49686 whole entry) above, with K59R, H60R, N151D counted along it
Method: (§1) Plasmids for three representative mutant clones (27-9, 27-18, and 27-36) were isolated from the primary yeast cells and transformed into a pAD-HAB1 expressing YRG-2 reporter strain (Park et al., Science 324:1068-1071 (2009)) in which Ga14 drives expression of a LacZ reporter gene to allow colorimetric indication of agonist response. Fenhexamid was applied at concentrations of 1, 5, 10, 25, and 50 μM. […] Mutant 27-36 was responsive to fenhexamid at 25 and 50 μM concentrations.
(§2) Screens for bromoxynil (Table 2), dichlobenil (Table 3), and benoxacor (Table 4) responsive PYR1 mutants were conducted as described above for fenhexamid, each utilizing 200 μM test compound and the A′ library, generated as described above. Yeast two-hybrid assay confirmed bromoxynil responsiveness for representative mutant clones 74A-1 and 74A-2. Bromoxynil was applied at concentrations of 5, 10, 25, and 50 μM. Both mutants 74A-1 and 74A-2 were responsive to bromoxynil at concentrations of 10, 25, and 50 μM.

PYR1 mutant 74A-2 = target: T2, PYR1 mutant 74A-2 (Arabidopsis thaliana, UniProt O49686, K59R/S92T); test: as above; format: cell-based; settings: 10, 25, and 50 μM (applied 5, 10, 25, 50 μM)
T2 construct: expressed in transfected cells; host or cells: Saccharomyces cerevisiae two-hybrid reporter strain expressing pAD-HAB1 (YRG-2 is named only for the fenhexamid confirmation)
T2 sequence (O49686 whole entry K59R/S92T): as the sequence (O49686 whole entry) above, with K59R, S92T counted along it
T2 sequence (Q9CAJ0 23-511, further chain): as the sequence (Q9CAJ0 23-511) above
Method: as §1, §2

PYR1 mutant BTH-9 = target: T3, PYR1 mutant BTH-9 (Arabidopsis thaliana, UniProt O49686, F159L); test: Yeast two-hybrid assay confirming BTH responsiveness; format: cell-based; settings: 50, 100, and 200 μM (applied 25, 50, 100, 200 μM)
T3 construct: expressed in transfected cells; host or cells: Saccharomyces cerevisiae two-hybrid reporter strain expressing pAD-HAB1 (strain not restated for BTH)
T3 sequence (O49686 whole entry F159L): as the sequence (O49686 whole entry) above, with F159L counted along it
T3 sequence (Q9CAJ0 23-511 partner): as the sequence (Q9CAJ0 23-511) above
Method: as §1
Given the plasticity of PYR1 indicated by these experiments, we sought to establish if an orthogonal receptor could be isolated for a target ligand that was not prescreened for weak binding using the yeast competition assays described above. The same screening methodology as described above was used to screen for mutants that respond to BTH (acibenzolar-s-methyl). […] Yeast two-hybrid assay confirmed BTH responsiveness for representative mutant clone BTH-9. […] was applied at concentrations of 25, 50, 100, and 200 μM, and mutant BTH-9 was responsive to BTH at concentrations of 50, 100, and 200 μM. Thus, the plasticity of PYR1 enables many orthogonal receptor variants to be isolated.

[2] = target: T4, 6×-His-PYR1(27-18) (S47P, K59R, Y120H) (Arabidopsis thaliana, UniProt O49686, K59R/S47P/Y120H); test: In vitro PP2C phosphatase activity assay (receptor activation = inhibition of PP2C); format: biochemical; settings: mutant 27-18; increasing concentrations; 10 mM Mn++ buffer; FIG. 1
T4 construct: 6x-His (N); made in house
T4 sequence (O49686 whole entry S47P/K59R/Y120H): as the sequence (O49686 whole entry) above, with S47P, K59R, Y120H counted along it
T4 sequence (Q9CAJ0 23-511, stated change not applied, further chain): as the sequence (Q9CAJ0 23-511) above
Method: (§3) FIGS. 1A-1B. PYR1 mutant 27-18 confers responsiveness to fenhexamid but not ABA. Representative PYR1 mutant 27-18 (comprising S47P, K59R, and Y120H substitution mutations) was tested for responsiveness to abscisic acid (“ABA”) (FIG. 1A) and fenhexamid (FIG. 1B) at increasing concentrations as compared to a wild-type PYR1 control using an in vitro PP2C phosphatase activity assay.
(§4) To probe orthogonal receptor-ligand interactions further, recombinant protein was expressed for the fenhexamid-responsive mutant 27-18, which has three mutations in PYR1. 6×-His-PYR1(27-18) protein was expressed and purified alongside wild-type PYR1 protein. Both proteins were tested for their ability to inhibit PP2C activity in response to increasing concentrations of either ABA or fenhexamid using phosphatase activity assays, in which activation of the PYR/PYL receptor is monitored by inhibition of PP2C activity (FIG. 1).

wild-type PYR1 protein = target: T5, wild-type PYR1 protein (Arabidopsis thaliana, UniProt O49686); test: as above; format: biochemical; settings: increasing concentrations, 10 mM Mn++ buffer, FIG. 1
T5 construct: made in house
T5 sequence (O49686 whole entry): as the sequence (O49686 whole entry) above
T5 sequence (Q9CAJ0 23-511 partner): as the sequence (Q9CAJ0 23-511) above
Method: as §3, §4

wild-type PYR1 (WT) = wild-type PYR1 (WT) (Arabidopsis thaliana, UniProt O49686); test: Responsiveness of PYR1 K59 mutants to ABA and dichlobenil; format: cell-based
Sequence of wild-type PYR1 (WT) (O49686 whole entry): as the sequence (O49686 whole entry) above
Sequence of wild-type PYR1 (WT) (Q9CAJ0 23-511 partner): as the sequence (Q9CAJ0 23-511) above
Method: (§5) To test these two hypotheses, a series of K59 mutants were constructed in PYR1 and examined for their sensitivity to the native ligand ABA and the orthogonal ligand dichlobenil (Table 6). Dichlobenil was chosen as a model orthogonal ligand for these studies because it was observed that it is a weak PYR/PYL agonist (i.e., it can weakly activate receptors at concentrations of 200 μM or higher). Dichlobenil therefore provides a useful test molecule with which to probe a mutant's sensitivity to an orthogonal ligand.

PYR/PYL receptors = test: Observed weak agonism of PYR/PYL receptors; settings: weak PYR/PYL agonist
Method: as §5

Compound: O=c1oc2ccccc2c(O)c1C1CCCc2ccccc21 (centres unmarked) [coumatetralyl]
- ability to reduce ABA-promoted PYR/PYL-PP2C protein-protein interactions [1]: compete for ABA

Compound: O=S(=O)(NCc1ccccn1)c1ccc(Br)c2ccccc12 [pyrabactin]
- Responsiveness to pyrabactin (PYR1): strong responsiveness
- Responsiveness to pyrabactin (PYL1): strong responsiveness
- Responsiveness to pyrabactin (PYL2): do not

Compound: N#Cc1cc(Br)c(O)c(Br)c1 [bromoxynil]
- ability to reduce ABA-promoted PYR/PYL-PP2C protein-protein interactions [1]: compete for ABA
- Responsiveness to bromoxynil (yeast two-hybrid) (PYR1 mutant 74A-1): responsive
- Responsiveness to bromoxynil (yeast two-hybrid) (PYR1 mutant 74A-2): responsive

Compound: N#Cc1cc(Cl)c(O)c(Cl)c1 [chloroxynil]
- ability to reduce ABA-promoted PYR/PYL-PP2C protein-protein interactions [1]: compete for ABA

Compound: CSC(=O)c1cccc2nnsc12 [BTH, acibenzolar-s-methyl]
- Responsiveness to BTH (yeast two-hybrid) (PYR1 mutant BTH-9): responsive

Compound: CC1=CC(=O)CC(C)(C)[C@@]1(O)/C=C/C(C)=C\C(=O)O [ABA, abscisic acid]
- Receptor activation (inhibition of PP2C activity) [2]: failed to activate
- Receptor activation (inhibition of PP2C activity) (wild-type PYR1 protein): efficiently activated

Compound: N#Cc1c(Cl)cccc1Cl [dichlobenil]
- Responsiveness, Dichlobenil [50 μM] (wild-type PYR1 (WT)): not activated
- ability to reduce ABA-promoted PYR/PYL-PP2C protein-protein interactions [1]: compete for ABA
- Concentration at which receptors are weakly activated (PYR/PYL receptors): ≥ 200 µM
